One block for each compound: values may come before it. Active and inactive are the calls of the source. No cut-off for these calls is given here.
Tests used:
[1] = target: T1, Protein phosphatase 1D (Homo sapiens) (UniProt O15297); test: Inhibition of N-terminal histidine-tagged PPM1Dc at 4 uM after 10 mins by BIOMOL GREEN assay
T1 sequence (whole entry): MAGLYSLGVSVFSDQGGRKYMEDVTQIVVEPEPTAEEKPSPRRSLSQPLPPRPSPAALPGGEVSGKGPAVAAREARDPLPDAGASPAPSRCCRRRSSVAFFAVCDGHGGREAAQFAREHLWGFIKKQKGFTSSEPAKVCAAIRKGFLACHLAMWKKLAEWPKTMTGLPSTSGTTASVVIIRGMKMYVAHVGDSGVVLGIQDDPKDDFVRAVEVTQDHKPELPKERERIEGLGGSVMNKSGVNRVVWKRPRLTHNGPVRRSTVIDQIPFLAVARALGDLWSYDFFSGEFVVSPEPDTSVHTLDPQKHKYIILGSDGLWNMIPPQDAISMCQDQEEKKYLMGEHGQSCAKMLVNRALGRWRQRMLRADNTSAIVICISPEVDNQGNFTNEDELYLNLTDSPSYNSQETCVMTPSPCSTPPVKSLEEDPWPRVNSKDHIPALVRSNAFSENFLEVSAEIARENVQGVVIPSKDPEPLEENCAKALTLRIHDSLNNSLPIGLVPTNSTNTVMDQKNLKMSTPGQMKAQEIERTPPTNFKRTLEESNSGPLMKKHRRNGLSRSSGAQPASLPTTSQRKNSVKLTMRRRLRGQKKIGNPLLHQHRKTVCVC

MCF7 [2] = test: Antiproliferative activity against human MCF7 cells overexpressing PPM1D at 40 uM after 1 to 5 days by trypan blue assay; type: functional
MCF7 [3] = test: Induction of cell cycle arrest in human MCF7 cells assessed as accumulation at Sub-G1 phase at 40 uM after 3 days by propidium iodide staining-based flow cytometry (reference value: 9.4 %); type: functional
MCF7 [4] = test: Induction of cell cycle arrest in human MCF7 cells assessed as accumulation at G1 phase at 40 uM after 3 days by propidium iodide staining-based flow cytometry (reference value: 38.5 %); type: functional
A549 = test: Antiproliferative activity against human A549 cells at 40 uM after 1 to 5 days by trypan blue assay; type: functional, cell-based
MCF7 [5] = test: Induction of cell cycle arrest in human MCF7 cells assessed as accumulation at G2/M phase at 40 uM after 5 days by propidium iodide staining-based flow cytometry (reference value: 21.2 %); type: functional
MCF7 [6] = test: Induction of cell cycle arrest in human MCF7 cells assessed as accumulation at Sub-G1 phase at 40 uM by propidium iodide staining-based flow cytometry; type: functional; conditions: TDE = time-dependent effect
[7] = target: T1, Protein phosphatase 1D (Homo sapiens); test: Inhibition of PPM1D in human MCF7 cells assessed as increase in p53 phosphorylation at Ser15 by Western blot analysis; type: cell-based
[8] = Inhibition of PP2A using Ac-DDEMT(P)GYVATR-NH2 as substrate at 40 uM after 10 mins by BIOMOL GREEN assay
[9] = Selectivity ratio for PPM1Dc over PPM1A
MCF7 [10] = test: Increase in PPM1D protein expression in human MCF7 cells at 10 uM after 24 hrs by immunofluorescence analysis; type: functional, cell-based
Protein phosphatase 1D = target: T2, Protein phosphatase 1D (Homo sapiens, UniProt O15297); test: Inhibition of N-terminal histidine-tagged PPM1Dc after 10 mins using BIOMOL GREEN assay
T2 sequence (O15297 whole entry): T1 sequence (whole entry)

MCF7 [11] = test: Increase in PPM1D protein expression in human MCF7 cells by Western blot analysis; type: functional, cell-based
MCF7 [12] = test: Induction of cell cycle arrest in human MCF7 cells assessed as accumulation at […] phase at 40 uM after 5 days by propidium iodide staining-based flow cytometry (reference value: 13.8 %); type: functional
MCF7 [13] = test: Induction of cell cycle arrest in human MCF7 cells assessed as accumulation at […] phase at 40 uM after 1 day by propidium iodide staining-based flow cytometry (reference value: 24 %); type: functional
MCF7 [14] = test: Induction of cell cycle arrest in human MCF7 cells assessed as accumulation at G2/M phase at 40 uM after 1 day by propidium iodide staining-based flow cytometry (reference value: 21.4 %); type: functional
[15] = target: T1, Protein phosphatase 1D (Homo sapiens); test: Inhibition of PPM1D in UV-irradiated human MCF7 cells assessed as increase in p53 phosphorylation at Ser15 measuring p53 protein level by Western blot analysis; type: cell-based
MCF7 [16] = test: Induction of cell cycle arrest in human MCF7 cells assessed as accumulation at G1 phase at 40 uM after 1 day by propidium iodide staining-based flow cytometry (reference value: 45.6 %); type: functional
MCF7 [17] = test: Induction of cell cycle arrest in human MCF7 cells assessed as accumulation at Sub-G1 phase at 40 uM after 5 days by propidium iodide staining-based flow cytometry (reference value: 8.1 %); type: functional
MCF7 [18] = test: Induction of cell cycle arrest in human MCF7 cells assessed as increase in accumulation at Sub-G1 phase at 40 uM after 1 day by propidium iodide staining-based flow cytometry; type: functional
MCF7 [19] = test: Antiproliferative activity against human MCF7 cells overexpressing PPM1D after 1 to 5 days by trypan blue assay; type: functional, cell-based
MCF7 [20] = test: Induction of cell cycle arrest in human MCF7 cells assessed as accumulation at G2/M phase at 40 uM after 3 days by propidium iodide staining-based flow cytometry (reference value: 22.9 %); type: functional
MCF7 [21] = test: Induction of cell cycle arrest in human MCF7 cells assessed as accumulation at G1 phase at 40 uM after 5 days by propidium iodide staining-based flow cytometry (reference value: 57 %); type: functional
MCF7 [22] = test: Induction of cell cycle arrest in human MCF7 cells assessed as accumulation at […] phase at 40 uM after 3 days by propidium iodide staining-based flow cytometry (reference value: 29.3 %); type: functional
[23] = target: T3, Protein phosphatase 1A (Homo sapiens) (UniProt P35813); test: Inhibition of wild-type PPM1A expressed in BL21(DE3)pLysS cells at 40 uM after 10 mins by BIOMOL GREEN assay; type: cell-based
T3 sequence (whole entry): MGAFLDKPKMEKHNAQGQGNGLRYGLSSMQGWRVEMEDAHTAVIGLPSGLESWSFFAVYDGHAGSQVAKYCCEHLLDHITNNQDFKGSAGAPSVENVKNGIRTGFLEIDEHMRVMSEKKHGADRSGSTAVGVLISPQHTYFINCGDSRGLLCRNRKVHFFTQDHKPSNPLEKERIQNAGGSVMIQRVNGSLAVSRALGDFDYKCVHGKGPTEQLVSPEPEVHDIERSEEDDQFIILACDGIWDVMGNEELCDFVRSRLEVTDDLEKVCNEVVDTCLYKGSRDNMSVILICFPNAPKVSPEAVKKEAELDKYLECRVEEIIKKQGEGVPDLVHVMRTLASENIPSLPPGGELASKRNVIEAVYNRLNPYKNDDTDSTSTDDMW

inhibition [1]: 79.4%
Structure (SMILES): CC[Si](CC)(CC)O[C@@H]1C[C@H](C)C[C@@H]2[C@@H]1C[C@H](O[Si](C)(C)C(C)(C)C)[C@@H]1[C@](C)(CO)CC(=O)C[C@@]21C

inhibition [1]: 25.1%
Structure (SMILES): C[C@H]1C[C@@H](O)[C@H]2C[C@H](O[Si](C)(C)C(C)(C)C)[C@@H]3[C@](C)(CO)C[C@H](O)C[C@@]3(C)[C@@H]2C1

inhibition [1]: 87.1%
Structure (SMILES): CC[Si](CC)(CC)O[C@@H]1C[C@H](C)C[C@@H]2[C@@H]1C[C@H](O[Si](C)(C)C(C)(C)C)[C@H]1[C@@]2(C)C[C@@H]2C[C@@]1(C)C(O)O2 (stereo not given in full)

inhibition [1]: 6.3%
Structure (SMILES): C[C@H]1C[C@@H](O)[C@H]2C[C@H](O)[C@@H]3[C@](C)(CO)C[C@H](O)C[C@@]3(C)[C@@H]2C1
Activity (MCF7 [2]): inactive

Structure (SMILES): CC[Si](CC)(CC)O[C@@H]1C[C@H](C)C[C@@H]2[C@@H]1C[C@H](O[Si](C)(C)C(C)(C)C)[C@@H]1[C@](C)(CO)C[C@H](O)C[C@@]21C
Activity (MCF7 [3]): 16.4%
Activity (MCF7 [4]): 39.3%
Activity (A549): inactive
Activity (MCF7 [5]): 12.9%
Activity (MCF7 [6]): tde
inhibition [7]: Active
inhibition [8]: 11%
Selectivity ratio [9]: 50
Activity (MCF7 [10]): Active
IC50 (Protein phosphatase 1D): 480 nM
Activity (MCF7 [11]): Active
Activity (MCF7 [12]): 15%
Activity (MCF7 [13]): 29.8%
Activity (MCF7 [14]): 16.8%
inhibition [1]: 97.1%
Activity (MCF7 [2]): >60%
inhibition [15]: Active
Activity (MCF7 [16]): 39%
Activity (MCF7 [17]): 25.3%
Activity (MCF7 [18]): 5.3%
Activity (MCF7 [19]): Dose-dependent effect
Activity (MCF7 [20]): 28.2%
Activity (MCF7 [21]): 46.8%
Activity (MCF7 [22]): 16%
inhibition [23]: 68%
